# Like-named read-outs stand apart in the source and are kept apart here.
# Columns and labels:
# [1] = Thermolysis of A8L in DMSO with or without hemin, LC-MS; type: physicochemical; conditions: 80 °C, 1 h
# Protocol: Since a putative antimalarial mechanism of action of these hybrid drugs was the alkylation of heme within the parasite food vacuole, the reactivity of the hybrid having the lower IC50 value, namely A8L (Table 2), was evaluated in the presence (or absence) of heme. In the absence of any protease activity able to cleave the tripeptide fragment, the alkoxyamine C–O bond was stable at room temperature; thus, thermolysis was carried out in DMSO at 80 °C for 1 h under an air atmosphere to achieve a nearly complete reaction (88–90% of conversion of A8L). The reaction was monitored by LC-MS analysis, and products A–F were detected and quantified (Figure 4). […] Products B, C, and D, resulting from the capture of dioxygen by the alkyl radical, were the major ones, with yields of 30%, 13%, and 21%, respectively, with respect to the starting amount of A8L. B and C have already been detected as thermolysis products of uncoupled alkoxyamine.
# In a test tube equipped with a magnetic stirrer, 20 μL of a stock solution of A8L (10 mM in DMSO) was added to 180 μL of DMSO. […] Retention times and detected m/z values (amu) were as follows: JP2310, 20.8 min, 758.5 (MH^+), 702.4 (fragment); A, 27.4 min, 615.4 (MH^+); B, 21.2 min, 629.3 (MH^+); C, 20.1 min, 631.4 (MH^+); D, 20.3 min, 647.3 (MH^+); F, 25.7 min, 613.3 (MH^+); hemin, 17.3 min, 616.2 (M^+).
# [2] = system: P. falciparum parasites at the schizont stage; assay: Efficacy on the re-invasion step, post-percoll schizonts treated 15 h; type: cell-based, Plasmodium falciparum
# Protocol: We wondered if this activity was due to a specific effect of the drug toward the schizont stage and re-invasion step of the parasite life cycle. However, treatment of parasites at the schizont stage for 15 h with A8L had no effect on parasite viability or development (Figure 8), highlighting that the mechanism of action of A8L has yet to be identified.
# (§1) The effect of hybrid compounds against Plasmodium parasites was assessed by the microscopic examination of parasite morphology upon drug exposure. For this purpose, parasites were synchronized at 0–4 h age by percoll-sorbitol treatment, 0–24 h age by sorbitol treatment, or at schizont stage by percoll treatment at the start of the experiment. Different treatment schedules were tested. In the case of multiple doses, parasite cultures were washed before each new drug addition.
# [3] = system: P. falciparum strain F32-ART (artemisinin-resistant); assay: microbe, parasite or virus in culture; type: cell-based, Plasmodium falciparum; conditions: for Selectivity Index CC50/IC50: cytotoxicity (Vero cells)/antiplasmodial activity (F32-ART) ratio
# Description: The antimalarial activity of peptide-alkoxyamine hybrids was first evaluated in the in vitro antiproliferative test (IC50) using the artemisinin-resistant strain F32-ART (Table 2, Table S1). The roles of the N-substitution of the alkoxyamine moiety (TEMPO- or DBNO-based, for example, A3L/A8L, line 1/line 10), of the configuration (L or D of the peptide, A3L/A3D, line 1/line 2), of the N-protection of the peptide (A3L/A4L or A5L, line 1/ lines 3 and 5) were examined. According to standard rules in the malaria field, only molecules having IC50 values below 1 μM were considered active.
# The F32-ART (artemisinin-resistant) strain and the F32-TEM (artemisinin-sensitive strain) were cultured according to Trager and Jensen in RPMI 1640 medium (Fisher Scientific, Illkirch, France) supplemented with 5% human serum (Etablissement français du Sang, Toulouse, France) at 2% hematocrit with type O human blood (Etablissement français du Sang, Toulouse, France), 37 °C, and 5% CO2 in a humidified atmosphere.
# (§2) IC50 values corresponding to 50% inhibition of P. falciparum growth were determined by SYBR Green assay, and the assessment of cytotoxicity was performed on Vero cells (cell line from the kidney of a normal adult African green monkey), as previously published. The selectivity index corresponded to the cytotoxicity/activity ratio.
# [4] = in vitro; type: cell-based, African green monkey; conditions: African green monkey, Cytotoxicity CC50
# Protocol: as §2
# [5] = system: F32-ART parasites; assay: Parasitemia monitoring and parasite morphology upon drug exposure, F32-ART ring-stage parasites; type: cell-based, Plasmodium falciparum; conditions: 48 h exposure
# Protocol: as §1
# [6] = system: F32-TEM parasites (artemisinin-sensitive); assay: Parasitemia monitoring with different treatment schedules, F32-TEM parasites; type: cell-based, Plasmodium falciparum
# [7] = Kinetic analysis of alkoxyamine bond homolysis by EPR; type: physicochemical; conditions: Equation (2), A = 2.4 · 10^14 s^−1
# Protocol: The kinetic homolysis for peptide-alkoxyamines reported in Table 1 was recorded in EPR using two solvents, tert-butylbenzene (t-BuPh) or an n-propanol:water (1:1, v:v) mixture. The growth of nitroxide was recorded in the presence of an alkyl radical scavenger, i.e., O2 here, to suppress the back reaction (kc in Scheme 4), as already reported.
# Homolysis rate constants kd are given by Equation (1) ([nitroxide]∞ = [alkoxyamine]0 = 0.1 mM), and the subsequent activation energy values Ea are given by Equation (2), as follows:(1) lnnitroxide∞−nitroxidet/nitroxide∞=−kd·t (2) Ea=−RTlnkd/A
# [8] = system: F32-ART parasites at the quiescent stage; assay: Quiescent-stage Survival Assay (QSA); type: cell-based, Plasmodium falciparum; conditions: 700 nM DHA 6 h/(DHA + molecule 7 µM) 48 h
# Protocol: In this assay, parasites were exposed to dihydroartemisinin (DHA) alone to induce quiescence, prior the addition of the drug to be tested for 48 h, and then the parasite recrudescence was monitored over a maximum of 4 weeks. Activity against quiescent parasites was evidenced by a delay in recrudescence time over 6 days between the conditions “DHA 6 h / DHA 48 h” and “DHA 6 h/(DHA + molecule) 48 h”. Atovaquone was used as a positive control, and its activity against quiescent parasites was here confirmed, as expected, by an extended delay of 11 days in recrudescence time (Figure 5). By contrast, no activity of A8L and A3L against quiescent parasites was evidenced in the QSA, with similar recrudescence time between the conditions “DHA 6 h/DHA 48 h” and “DHA 6 h/(DHA + molecule) 48 h”. […] To understand this phenomenon, we explored the parasite response during treatment with these hybrid compounds.
# The QSA was performed according to Reyser et al.. Briefly, ART-resistant ring-stage parasites at 3% parasitemia were exposed for 6 h to 700 nM of DHA (dihydroartemisinin) to induce quiescence or were exposed to no drugs (control condition). After that, the compound to be tested was added in both conditions […]. At the end of the treatment, the drugs were washed off with RPMI-1640, and parasites were replaced in drug-free conditions. Blood smears were performed to follow parasitemia until the day the cultures reached their starting parasitemia, defined as the recrudescence day. If after 30 days no parasite recrudescence was observed, then the data were censored. Data analysis was performed using Kaplan–Meier survival curves. Statistical significance was ascertained by using a log-rank (Mantel-Cox) test using GraphPad Prism 7 software (San Diego, CA, USA).
# [9] = system: Vero cells; assay: in vitro; type: cell-based, African green monkey; conditions: African green monkey
# Protocol: as §2
# [10] = target: PLM I (Plasmodium falciparum, UniProt P39898); assay: Enzymatic activation monitored by EPR, PLM I; type: biochemical
# Sequence of PLM I (P39898 124-452): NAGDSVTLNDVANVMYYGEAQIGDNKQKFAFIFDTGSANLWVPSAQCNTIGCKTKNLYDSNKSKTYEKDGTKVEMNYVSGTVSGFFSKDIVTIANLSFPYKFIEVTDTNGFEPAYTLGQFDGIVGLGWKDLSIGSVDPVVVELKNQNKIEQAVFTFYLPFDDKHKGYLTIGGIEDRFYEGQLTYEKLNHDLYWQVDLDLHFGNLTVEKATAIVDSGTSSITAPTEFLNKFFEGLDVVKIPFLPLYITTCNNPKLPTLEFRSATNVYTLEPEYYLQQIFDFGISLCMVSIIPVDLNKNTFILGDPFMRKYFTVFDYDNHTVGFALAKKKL
# [11] = system: Vero cells; conditions: cited from earlier work
# [12] = target: T1, chymotrypsin (Bos taurus, UniProt P00766); assay: Enzymatic activation and homolysis monitored by EPR, chymotrypsin; type: biochemical; conditions: 37 °C
# T1 construct: purchased Worthington
# Protocol: Due to the low solubility of A3L/D–A5L/D in water, suitable concentrations (ca. 0.1 mM) for EPR detection could not be reached. Thus, A7L was prepared, which afforded a carboxylate function at a physiological pH. […] As other PLMs were not available, chymotrypsin, a pancreatic protease that accepts substrates with Phe in the P1 position, was used to hydrolyse A7L. The release of the free alkoxyamine, which decomposed spontaneously and rapidly into alkyl radical R3• and nitroxide R1R2NO•, and the concentration in nitroxide was monitored with EPR (Figure 3).
# Kinetics were performed in HEPES 50 mM buffer containing […] at 37 °C. Then, 2.5 mM of hemin (Santa Cruz biotechnology, Heidelberg, Germany) was added to scavenge the alkyl radicals. In one, kinetic Chymotrypsin (Worthington, OH, USA) was added. Activation and homolysis were monitored by reading the concentrations of released TEMPO using, versus time, a calibrated EPR spectrometer (EMX Nano, Bruker, Wissembourg, France).
# [13] = Solubility in water; type: physicochemical
# [14] = system: S. mansoni; parameters: method as in doi:10.1021/cr00014a008; conditions: 100 μg/mL, in 2 h, in vitro ref 22; cited from earlier work
# [15] = Plasmodium falciparum, F32, read-out: Antiplasmodial Activity IC50, strain F32-ART, SYBR Green assay, mean ± SEM of 3 to 6 experiments
# [16] = Plasmodium falciparum, F32, read-out: Antiplasmodial IC50, strain F32-ART
# [17] = read-out: Antiplasmodial Activity IC50, strain F32-ART, SYBR Green assay, mean ± SEM of 3 to 6 experiments
smiles,measurement,setting,value
CC(ON(C(C)(C)C)C(C)(C)C)c1ccc(NC(=O)[C@H](Cc2ccccc2)NC(=O)[C@@H](NC(=O)[C@H](Cc2ccccc2)NC(=O)OC(C)(C)C)C(C)C)cc1 (stereo partly drawn) [A8L],conversion of A8L on thermolysis,[1]; A8L/hemin molar ratio 1/1,88–89%
same,conversion of A8L on thermolysis,"[1]; air, absence of hemin",88–90%
same,effect on parasite viability or development,[2],no effect
same,IC50,[3]; [15],0.27 ± 0.04 µM
same,IC50,[3]; [16],0.3 µM
same,Selectivity Index CC50/IC50,[3],>185
same,CC50,[4],> 50 µM
same,effect on parasitemia and parasite cell cycle,[5],cytostatic-like effect
same,effect on parasite cell cycle,"[6]; F32-TEM, 5 µM 48 h",cytostatic-like effect
same,effect of repeated exposure for at least three days,[6]; once or twice a day for three days,elimination of parasites in a dose-dependent manner
same,activation energy Ea,[7]; in t-BuPh,28.9 kcal/mol
same,activation energy Ea,[7]; in water/n-PrOH 1/1 v/v,28.9 kcal/mol
same,activity against quiescent parasites in the QSA,[8],no activity
CC(ON(C(C)(C)C)C(C)(C)C)c1ccc(NC(=O)[C@@H](Cc2ccccc2)NC(=O)[C@H](NC(=O)[C@H](N)Cc2ccccc2)C(C)C)cc1 (stereo partly drawn) [AW231],IC50,[3]; [17],4.48 ± 0.29 µM
same,CC50,[9],6.6 ± 0.4 µM
"CC(ON1C(C)(C)CCCC1(C)C)c1ccc(NC(=O)[C@H](Cc2ccccc2)NC(=O)[C@@H](NC(=O)[C@H](Cc2ccccc2)NC(=O)CCC(=O)O)C(C)C)cc1 (stereo partly drawn) [A7L, suc-Phe-Val-Phe-anilide-TEMPO]",EPR signal of TEMPO in the presence of PLM I,[10],no EPR signal of TEMPO could be observed
same,CC50,[11],> 50 µM
same,stability of the prodrug,[12]; absence of chymotrypsin,stable at 37 °C
same,"activation by protease, release of nitroxide (EPR)","[12]; presence of chymotrypsin, HEPES buffer",activatable by chymotrypsin
same,IC50,[3]; [15],5 ± 3 µM
same,Selectivity Index CC50/IC50,[3],>10
same,pH above which soluble,[13],above 5.5
CC(ON1C(C)(C)CCCC1(C)C)c1ccc(NC(=O)[C@H](Cc2ccccc2)NC(=O)[C@@H](NC(=O)[C@@H](N)Cc2ccccc2)C(C)C)cc1 (stereo partly drawn) [A5L],CC50,[11],> 50 µM
same,IC50,[3]; [17],> 50 µM
same,schistosomal population killed,[14],50%
"CC(ON1C(C)(C)CCCC1(C)C)c1ccc(NC(=O)[C@H](Cc2ccccc2)NC(=O)[C@@H](NC(=O)[C@H](Cc2ccccc2)NC(=O)OC(C)(C)C)C(C)C)cc1 (stereo partly drawn) [A3L, Boc-Phe-Val-Phe-anilide-TEMPO]",CC50,[11],> 50 µM
same,IC50,[3]; [15],0.3 ± 0.04 µM
same,IC50,[3]; [16],0.27 µM
same,Selectivity Index CC50/IC50,[3],>165
same,effect on parasitemia and parasite cell cycle,[5],cytostatic-like effect
same,activity against quiescent parasites in the QSA,[8],no activity
CC(ON1C(C)(C)CCCC1(C)C)c1ccc(NC(=O)[C@@H](Cc2ccccc2)NC(=O)[C@H](NC(=O)[C@H](N)Cc2ccccc2)C(C)C)cc1 (stereo partly drawn) [A4D],IC50,[3]; [15],2.2 to 2.6 µM
same,Selectivity Index CC50/IC50,[3],1.1
same,IC50,[3]; [17],2.3 ± 0.3 µM
same,CC50,[4],2.2 to 2.6 µM
same,CC50,[9],2.6 ± 0.3 µM
CC(ON1C(C)(C)CCCC1(C)C)c1ccc(NC(=O)[C@H](Cc2ccccc2)NC(=O)[C@@H](NC(=O)[C@@H](N)Cc2ccccc2)C(C)C)cc1 (stereo partly drawn) [A4L],CC50,[11],> 50 µM
same,IC50,[3]; [15],> 50 µM
same,schistosomal population killed,[14],50%
